Test results from patent US20100311714A1, “1H-IMIDAZO[4,5-c]QUINOLINONE COMPOUNDS” (priority 2009, published 2010).
Read-outs that look alike come from different tables or passages of the source.

Tests used:
mTOR = biological target: T1, mTOR (Homo sapiens, UniProt P42345); test: Biochemical assay for m-TOR by TR-FRET
T1 construct: purchased Invitrogen Corporation (Carlsbad/Calif., USA) PV4753
In short: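 mTOR (0.5 nM) phosphorylates GFP-4EBP1 (400 nM) with 8 μM ATP at rt in 50 mM HEPES pH 7.5, 10 mM MnCl2, 50 mM NaCl, 1 mM EGTA, 1 mM DTT; compounds 0.003–10 μM final. EDTA stop with Tb-anti-p4EBP1[pT46] antibody (0.5 nM); TR-FRET read after 15 min against no-enzyme and vehicle controls.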

[1] = Parallel Artificial Membrane Permeability Assay (PAMPA) at pH 6.8; assay type: physicochemical
In short: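 Reported as log Pe, membrane permeability was determined by parallel artificial membrane assay at pH 6.8 per Wohnsland–Faller.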

[2] = system: PKB Ser473 phosphorylation in Rat1-myr-HA-p110 alpha cells; test: Reverse protein array, PKB Ser473 phosphorylation in Rat1-myr-HA-p110 alpha cells; assay type: cell-based; conditions: Rattus norvegicus, 0.5 h, 30 minutes compound incubation, read-out: p-PKB/IC50_alpha

T1 sequence (P42345 1360-2549 limits assumed): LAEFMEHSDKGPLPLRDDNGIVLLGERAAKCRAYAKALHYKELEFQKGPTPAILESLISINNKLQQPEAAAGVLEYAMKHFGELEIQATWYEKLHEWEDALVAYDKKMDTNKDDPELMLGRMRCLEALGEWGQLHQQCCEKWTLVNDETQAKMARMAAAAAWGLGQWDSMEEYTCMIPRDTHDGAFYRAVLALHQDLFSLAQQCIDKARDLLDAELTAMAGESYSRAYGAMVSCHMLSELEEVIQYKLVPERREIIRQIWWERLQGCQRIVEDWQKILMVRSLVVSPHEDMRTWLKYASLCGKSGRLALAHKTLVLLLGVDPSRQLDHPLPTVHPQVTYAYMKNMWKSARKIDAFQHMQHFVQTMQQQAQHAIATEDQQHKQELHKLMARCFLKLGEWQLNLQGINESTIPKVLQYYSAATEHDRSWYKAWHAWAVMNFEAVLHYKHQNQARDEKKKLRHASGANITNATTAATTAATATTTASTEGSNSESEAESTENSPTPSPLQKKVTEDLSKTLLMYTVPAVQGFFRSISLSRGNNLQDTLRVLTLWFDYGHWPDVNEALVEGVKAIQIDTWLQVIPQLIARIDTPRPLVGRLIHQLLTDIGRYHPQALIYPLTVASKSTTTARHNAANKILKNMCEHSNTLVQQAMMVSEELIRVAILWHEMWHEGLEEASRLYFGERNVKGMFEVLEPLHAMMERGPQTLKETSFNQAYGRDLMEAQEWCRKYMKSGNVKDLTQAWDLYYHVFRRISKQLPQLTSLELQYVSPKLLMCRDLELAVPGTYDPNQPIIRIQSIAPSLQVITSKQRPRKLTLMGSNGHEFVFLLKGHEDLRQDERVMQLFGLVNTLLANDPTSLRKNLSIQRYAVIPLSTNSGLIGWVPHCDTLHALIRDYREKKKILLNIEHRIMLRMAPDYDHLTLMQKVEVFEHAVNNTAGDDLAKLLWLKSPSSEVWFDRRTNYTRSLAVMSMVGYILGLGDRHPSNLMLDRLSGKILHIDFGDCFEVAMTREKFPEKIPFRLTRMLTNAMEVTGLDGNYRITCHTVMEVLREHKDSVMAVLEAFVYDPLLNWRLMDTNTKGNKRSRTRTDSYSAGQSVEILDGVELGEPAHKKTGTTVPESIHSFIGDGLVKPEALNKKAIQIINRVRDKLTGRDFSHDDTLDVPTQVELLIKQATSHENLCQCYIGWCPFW

With `Cc1cc(F)ncc1-n1c(=O)n(C)c2cnc3ccc(-c4cnc(N)c(C(F)(F)F)c4)cc3c21` [Example 16.1, 8-(6-Amino-5-trifluoromethyl-pyridin-3-yl)-1-(6-fluoro-4-methyl-pyridin-3-yl)-3-methyl-1,3-dihydro-imidazo[4,5-c]quinolin-2-one] the IC50 (mTOR; read-out: EPK_mTOR/IC50) was 110 nM, the “HT-Perm logPe pH6.8” value [1] was −3.7 and the IC50 [2] was 13.3 nM.

In the case of `CNc1ccc(-c2ccc3ncc4c(c3c2)n(-c2ccc(OCCOC)nc2C)c(=O)n4C)cn1` [Example 13.3, 1-[6-(2-Methoxy-ethoxy)-2-methyl-pyridin-3-yl]-3-methyl-8-(6-methylamino-pyridin-3-yl)-1,3-dihydro-imidazo[4,5-c]quinolin-2-one], the IC50 (mTOR; read-out: EPK_mTOR/IC50) is reported as 14 nM, the “HT-Perm logPe pH6.8” value [1] is reported as −4 and the IC50 [2] is reported as 5 nM.

In the case of `CNc1cc(-c2ccc3ncc4c(c3c2)n(-c2ccc(N(C)C)nc2C)c(=O)n4C)cnc1C` [Example 19.2, 1-(6-Dimethylamino-2-methyl-pyridin-3-yl)-3-methyl-8-(6-methyl-5-methylamino-pyridin-3-yl)-1,3-dihydro-imidazo[4,5-c]quinolin-2-one], the IC50 (mTOR; read-out: EPK_mTOR/IC50) is reported as 9 nM, the “HT-Perm logPe pH6.8” value [1] is reported as −4.1 and the IC50 [2] is reported as < 4.57 nM.

In the case of `COc1ncccc1-n1c(=O)n(C)c2cnc3ccc(-c4cnc5c(ccn5C)c4)cc3c21` [Example 1.7, 1-(2-Methoxy-pyridin-3-yl)-3-methyl-8-(1-methyl-1H-pyrrolo[2,3-b]pyridin-5-yl)-1,3-dihydro-imidazo[4,5-c]quinolin-2-one], the IC50 (mTOR; read-out: mTOR/IC50) is reported as 16 nM, the “HT-perm/logPe pH6.8” value [1] is reported as −3.8 and the IC50 [2] is reported as 5.44 nM.

In the case of `COCCOc1ccc(-n2c(=O)n(C)c3cnc4ccc(-c5cnc(N)c(C(F)(F)F)c5)cc4c32)c(C)n1` [Example 13.2, 8-(6-Amino-5-trifluoromethyl-pyridin-3-yl)-1-[6-(2-methoxy-ethoxy)-2-methyl-pyridin-3-yl]-3-methyl-1,3-dihydro-imidazo[4,5-c]quinolin-2-one], the IC50 (mTOR; read-out: EPK_mTOR/IC50) is reported as 18 nM, the “HT-Perm logPe pH6.8” value [1] is reported as −3.7 and the IC50 [2] is reported as < 4.57 nM.

With `CNc1ccc(-c2ccc3ncc4c(c3c2)n(-c2ccc(N3CCCC3)nc2C)c(=O)n4C)cn1` [Example 25.1, 3-Methyl-8-(6-methylamino-pyridin-3-yl)-1-(2-methyl-6-pyrrolidin-1-yl-pyridin-3-yl)-1,3-dihydro-imidazo[4,5-c]quinolin-2-one] the IC50 (mTOR; read-out: EPK_mTOR/IC50) was 34 nM, the “HT-Perm logPe pH6.8” value [1] was −3.9 and the IC50 [2] was 11.5 nM.

For `CNc1ncc(-c2ccc3ncc4c(c3c2)n(-c2ccc(F)nc2C)c(=O)n4C)cc1F` [Example 7.12, 8-(5-Fluoro-6-methylamino-pyridin-3-yl)-1-(6-fluoro-2-methyl-pyridin-3-yl)-3-methyl-1,3-dihydro-imidazo[4,5-c]quinolin-2-one], the IC50 (mTOR; read-out: EPK_mTOR/IC50) was 66 nM, the “HT-Perm logPe pH6.8” value [1] was −3.7 and the IC50 [2] was 6.4 nM.

With `COc1nc(N2CCNCC2)ccc1-n1c(=O)n(C)c2cnc3ccc(-c4cnc(N(C)C)nc4)cc3c21` [Example 9.4, 8-(2-Dimethylamino-pyrimidin-5-yl)-1-(2-methoxy-6-piperazin-1-yl-pyridin-3-yl)-3-methyl-1,3-dihydro-imidazo[4,5-c]quinolin-2-one] the IC50 (mTOR; read-out: EPK_mTOR/IC50) was 9 nM, the “HT-Perm logPe pH6.8” value [1] was −6.1 and the IC50 [2] was 18 nM.

With `CCNc1cc(-c2ccc3ncc4c(c3c2)n(-c2cnc(F)cc2C)c(=O)n4C)cnc1C` [Example 16.2, 8-(5-Ethylamino-6-methyl-pyridin-3-yl)-1-(6-fluoro-4-methyl-pyridin-3-yl)-3-methyl-1,3-dihydro-imidazo[4,5-c]quinolin-2-one] the IC50 (mTOR; read-out: EPK_mTOR/IC50) was 53 nM, the “HT-Perm logPe pH6.8” value [1] was −3.8 and the IC50 [2] was 21.8 nM.

For `COCCN(C)c1ccc(-n2c(=O)n(C)c3cnc4ccc(-c5cncc(N)c5)cc4c32)c(C)n1` [Example 15.8, 8-(5-Amino-pyridin-3-yl)-1-{6-[(2-methoxy-ethyl)-methyl-amino]-2-methyl-pyridin-3-yl}-3-methyl-1,3-dihydro-imidazo[4,5-c]quinolin-2-one], the IC50 (mTOR; read-out: EPK_mTOR/IC50) was 11 nM, the “HT-Perm logPe pH6.8” value [1] was −5.1 and the IC50 [2] was 5.1 nM.

For `COc1ccc(-n2c(=O)n(C)c3cnc4ccc(-c5cnc(CO)c(OC)c5)cc4c32)c(C)n1` [Example 11.8, 8-(6-Hydroxymethyl-5-methoxy-pyridin-3-yl)-1-(6-methoxy-2-methyl-pyridin-3-yl)-3-methyl-1,3-dihydro-imidazo[4,5-c]quinolin-2-one], the IC50 (mTOR; read-out: EPK_mTOR/IC50) was 46 nM, the “HT-Perm logPe pH6.8” value [1] was −3.9 and the IC50 [2] was 7.8 nM.

In the case of `CCOc1ccc(-c2ccc3ncc4c(c3c2)n(-c2cccnc2C)c(=O)n4C)cn1` [Example 2.1, 8-(6-Ethoxy-pyridin-3-yl)-3-methyl-1-(2-methyl-pyridin-3-yl)-1,3-dihydro-imidazo[4,5-c]quinolin-2-one], the IC50 (mTOR; read-out: mTOR/IC50) is reported as 42 nM, the “HT-perm/logPe pH6.8” value [1] is reported as −3.7 and the IC50 [2] is reported as 6.31 nM.

With `CCOc1ccc(-c2ccc3ncc4c(c3c2)n(-c2ccc(OCCOC)nc2C)c(=O)n4C)cn1` [Example 13.1, 8-(6-Ethoxy-pyridin-3-yl)-1-[6-(2-methoxy-ethoxy)-2-methyl-pyridin-3-yl]-3-methyl-1,3-dihydro-imidazo[4,5-c]quinolin-2-one] the IC50 (mTOR; read-out: EPK_mTOR/IC50) was 49 nM, the “HT-Perm logPe pH6.8” value [1] was −4 and the IC50 [2] was 17 nM.

For `COc1ccc(-c2ccc3ncc4c(c3c2)n(-c2cccnc2)c(=O)n4C)cc1OC` [Example 5.2, 8-(3,4-Dimethoxy-phenyl)-3-methyl-1-pyridin-3-yl-1,3-dihydro-imidazo[4,5-c]quinolin-2-one], the IC50 (mTOR; read-out: mTOR/IC50) was 232 nM, the “HT-perm/logPe pH6.8” value [1] was −3.9 and the IC50 [2] was 18.1 nM.

For `CCOc1ccc(-c2ccc3ncc4c(c3c2)n(-c2ccc(C)nc2C)c(=O)n4C)cn1` [Example 14.2, 1-(2,6-Dimethyl-pyridin-3-yl)-8-(6-ethoxy-pyridin-3-yl)-3-methyl-1,3-dihydro-imidazo[4,5-c]quinolin-2-one], the IC50 (mTOR; read-out: EPK_mTOR/IC50) was 26 nM, the “HT-Perm logPe pH6.8” value [1] was −3.8 and the IC50 [2] was 20.4 nM.

In the case of `CCOCc1cc(-c2ccc3ncc4c(c3c2)n(-c2ccc(F)nc2C)c(=O)n4C)cnc1N` [Example 7.15, 8-(6-Amino-5-ethoxymethyl-pyridin-3-yl)-1-(6-fluoro-2-methyl-pyridin-3-yl)-3-methyl-1,3-dihydro-imidazo[4,5-c]quinolin-2-one], the IC50 (mTOR; read-out: EPK_mTOR/IC50) is reported as 426 nM, the “HT-Perm logPe pH6.8” value [1] is reported as −4 and the IC50 [2] is reported as 20.1 nM.

With `CNc1ccc(-c2ccc3ncc4c(c3c2)n(-c2cccnc2OC)c(=O)n4C)cn1` [Example 1.4, 1-(2-Methoxy-pyridin-3-yl)-3-methyl-8-(6-methylamino-pyridin-3-yl)-1,3-dihydro-imidazo[4,5-c]quinolin-2-one] the IC50 (mTOR; read-out: mTOR/IC50) was 25 nM, the “HT-perm/logPe pH6.8” value [1] was −3.9 and the IC50 [2] was 8.68 nM.

With `CCNc1cc(-c2ccc3ncc4c(c3c2)n(-c2ccc(C)nc2C)c(=O)n4C)cnc1C` [Example 14.6, 1-(2,6-Dimethyl-pyridin-3-yl)-8-(5-ethylamino-6-methyl-pyridin-3-yl)-3-methyl-1,3-dihydro-imidazo[4,5-c]quinolin-2-one] the IC50 (mTOR; read-out: EPK_mTOR/IC50) was 6 nM, the “HT-Perm logPe pH6.8” value [1] was −4.1 and the IC50 [2] was 5.2 nM.

In the case of `CNc1ncc(-c2ccc3ncc4c(c3c2)n(-c2cnc(F)cc2C)c(=O)n4C)cn1` [Example 16.3, 1-(6-Fluoro-4-methyl-pyridin-3-yl)-3-methyl-8-(2-methylamino-pyrimidin-5-yl)-1,3-dihydro-imidazo[4,5-c]quinolin-2-one], the IC50 (mTOR; read-out: EPK_mTOR/IC50) is reported as 151 nM, the “HT-Perm logPe pH6.8” value [1] is reported as −4.4 and the IC50 [2] is reported as 64.1 nM.

In the case of `Cc1cccnc1-n1c(=O)n(C)c2cnc3ccc(-c4cnc5ccccc5c4)cc3c21` [Example 3.8, 3-Methyl-1-(3-methyl-pyridin-2-yl)-8-quinolin-3-yl-1,3-dihydro-imidazo[4,5-c]quinolin-2-one], the IC50 (mTOR; read-out: mTOR/IC50) is reported as 544 nM, the “HT-perm/logPe pH6.8” value [1] is reported as −3.9 and the IC50 [2] is reported as 54.9 nM.

In the case of `CNC(=O)c1cc(-c2ccc3ncc4c(c3c2)n(-c2ccc(F)nc2C)c(=O)n4C)cnc1N` [Example 7.14, 2-Amino-5-[1-(6-fluoro-2-methyl-pyridin-3-yl)-3-methyl-2-oxo-2,3-dihydro-1H-imidazo[4,5-c]quinolin-8-yl]-N-methyl-nicotinamide], the IC50 (mTOR; read-out: EPK_mTOR/IC50) is reported as 251 nM, the “HT-Perm logPe pH6.8” value [1] is reported as −5.9 and the IC50 [2] is reported as 15.2 nM.

In the case of `COCCN(C)c1ccc(-n2c(=O)n(C)c3cnc4ccc(-c5cnc6c(ccn6C)c5)cc4c32)c(C)n1` [Example 15.7, 1-{6-[(2-Methoxy-ethyl)-methyl-amino]-2-methyl-pyridin-3-yl}-3-methyl-8-(1-methyl-1H-pyrrolo[2,3-b]pyridin-5-yl)-1,3-dihydro-imidazo[4,5-c]quinolin-2-one], the IC50 (mTOR; read-out: EPK_mTOR/IC50) is reported as 75 nM, the “HT-Perm logPe pH6.8” value [1] is reported as −3.9 and the IC50 [2] is reported as 9.6 nM.

For `Cc1nc(N2CC(F)(F)C(F)(F)C2)ccc1-n1c(=O)n(C)c2cnc3ccc(-c4cncc(C(C)(C)O)c4)cc3c21` [Example 35.1, 8-[5-(1-Hydroxy-1-methyl-ethyl)-pyridin-3-yl]-3-methyl-1-[2-methyl-6-(3,3,4,4-tetrafluoro-pyrrolidin-1-yl)-pyridin-3-yl]-1,3-dihydro-imidazo[4,5-c]quinolin-2-one], the IC50 (mTOR; read-out: EPK_mTOR/IC50) was 68 nM, the “HT-Perm logPe pH6.8” value [1] was −4.3 and the IC50 [2] was 14.6 nM.

With `COc1cc(-c2ccc3ncc4c(c3c2)n(-c2ccc(N(C)C)nc2C)c(=O)n4C)cnc1CO` [Example 19.4, 1-(6-Dimethylamino-2-methyl-pyridin-3-yl)-8-(6-hydroxymethyl-5-methoxy-pyridin-3-yl)-3-methyl-1,3-dihydro-imidazo[4,5-c]quinolin-2-one] the IC50 (mTOR; read-out: EPK_mTOR/IC50) was 42 nM, the “HT-Perm logPe pH6.8” value [1] was −4.1 and the IC50 [2] was 6.8 nM.

With `CCOc1ccc(-c2ccc3ncc4c(c3c2)n(-c2cncc(C)c2)c(=O)n4C)cn1` [Example 17.1, 8-(6-Ethoxy-pyridin-3-yl)-3-methyl-1-(5-methyl-pyridin-3-yl)-1,3-dihydro-imidazo[4,5-c]quinolin-2-one] the IC50 (mTOR; read-out: EPK_mTOR/IC50) was 484 nM, the “HT-Perm logPe pH6.8” value [1] was −4.5 and the IC50 [2] was 53.4 nM.
